Tests used:
[1] = tested on: Tyrosine-protein kinase ABL1 (Homo sapiens), P00519 [E255K]; details: Compound concentration 1000.0 nM
[2] = target: Tyrosine-protein kinase ABL2 (Homo sapiens) (UniProt P42684); details: Compound concentration 1000.0 nM
[3] = target: Atypical kinase COQ8A, mitochondrial (Homo sapiens) (UniProt Q8NI60); details: Compound concentration 1000.0 nM
[4] = target: Cyclin-dependent kinase 5 (Homo sapiens) (UniProt Q00535); details: Compound concentration 1000.0 nM
[5] = target: Dual specificity protein kinase CLK4 (Homo sapiens) (UniProt Q9HAZ1); details: Compound concentration 1000.0 nM
[6] = target: Casein kinase I isoform gamma-3 (Homo sapiens) (UniProt Q9Y6M4); details: Compound concentration 1000.0 nM
[7] = target: Death-associated protein kinase 1 (Homo sapiens) (UniProt P53355); details: Compound concentration 1000.0 nM
[8] = tested on: Epidermal growth factor receptor (Homo sapiens), P00533 [UNDEFINED MUTATION]; details: Compound concentration 1000.0 nM
[9] = target: Mitogen-activated protein kinase 6 (Homo sapiens) (UniProt Q16659); details: Compound concentration 1000.0 nM
[10] = target: Mitogen-activated protein kinase 15 (Homo sapiens) (UniProt Q8TD08); details: Compound concentration 1000.0 nM
[11] = tested on: Receptor-type tyrosine-protein kinase FLT3 (Homo sapiens), P36888 [R834Q]; details: Compound concentration 1000.0 nM
[12] = target: Homeodomain-interacting protein kinase 3 (Homo sapiens) (UniProt Q9H422); details: Compound concentration 1000.0 nM
[13] = target: Homeodomain-interacting protein kinase 4 (Homo sapiens) (UniProt Q8NE63); details: Compound concentration 1000.0 nM
[14] = target: Interleukin-1 receptor-associated kinase 4 (Homo sapiens) (UniProt Q9NWZ3); details: Compound concentration 1000.0 nM
[15] = target: Mitogen-activated protein kinase 10 (Homo sapiens) (UniProt P53779); details: Compound concentration 1000.0 nM
Chain of Mitogen-activated protein kinase 10 (Homo sapiens) (P53779 whole entry): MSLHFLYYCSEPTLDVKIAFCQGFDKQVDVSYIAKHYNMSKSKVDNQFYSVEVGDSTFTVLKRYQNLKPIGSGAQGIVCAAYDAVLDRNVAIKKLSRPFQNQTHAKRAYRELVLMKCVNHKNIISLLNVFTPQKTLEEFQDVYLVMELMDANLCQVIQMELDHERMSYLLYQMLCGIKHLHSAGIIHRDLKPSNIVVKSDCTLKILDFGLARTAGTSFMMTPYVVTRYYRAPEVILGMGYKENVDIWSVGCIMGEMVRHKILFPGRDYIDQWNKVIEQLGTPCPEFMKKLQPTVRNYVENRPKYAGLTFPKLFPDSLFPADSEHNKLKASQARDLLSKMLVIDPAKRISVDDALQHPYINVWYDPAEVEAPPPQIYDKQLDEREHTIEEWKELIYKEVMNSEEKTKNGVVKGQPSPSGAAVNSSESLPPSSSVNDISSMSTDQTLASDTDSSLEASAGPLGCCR

[16] = tested on: Mast/stem cell growth factor receptor Kit (Homo sapiens), P10721 [L576P]; details: Compound concentration 1000.0 nM
Chain of Mast/stem cell growth factor receptor Kit (Homo sapiens), P10721 [L576P] (P10721 whole entry L576P): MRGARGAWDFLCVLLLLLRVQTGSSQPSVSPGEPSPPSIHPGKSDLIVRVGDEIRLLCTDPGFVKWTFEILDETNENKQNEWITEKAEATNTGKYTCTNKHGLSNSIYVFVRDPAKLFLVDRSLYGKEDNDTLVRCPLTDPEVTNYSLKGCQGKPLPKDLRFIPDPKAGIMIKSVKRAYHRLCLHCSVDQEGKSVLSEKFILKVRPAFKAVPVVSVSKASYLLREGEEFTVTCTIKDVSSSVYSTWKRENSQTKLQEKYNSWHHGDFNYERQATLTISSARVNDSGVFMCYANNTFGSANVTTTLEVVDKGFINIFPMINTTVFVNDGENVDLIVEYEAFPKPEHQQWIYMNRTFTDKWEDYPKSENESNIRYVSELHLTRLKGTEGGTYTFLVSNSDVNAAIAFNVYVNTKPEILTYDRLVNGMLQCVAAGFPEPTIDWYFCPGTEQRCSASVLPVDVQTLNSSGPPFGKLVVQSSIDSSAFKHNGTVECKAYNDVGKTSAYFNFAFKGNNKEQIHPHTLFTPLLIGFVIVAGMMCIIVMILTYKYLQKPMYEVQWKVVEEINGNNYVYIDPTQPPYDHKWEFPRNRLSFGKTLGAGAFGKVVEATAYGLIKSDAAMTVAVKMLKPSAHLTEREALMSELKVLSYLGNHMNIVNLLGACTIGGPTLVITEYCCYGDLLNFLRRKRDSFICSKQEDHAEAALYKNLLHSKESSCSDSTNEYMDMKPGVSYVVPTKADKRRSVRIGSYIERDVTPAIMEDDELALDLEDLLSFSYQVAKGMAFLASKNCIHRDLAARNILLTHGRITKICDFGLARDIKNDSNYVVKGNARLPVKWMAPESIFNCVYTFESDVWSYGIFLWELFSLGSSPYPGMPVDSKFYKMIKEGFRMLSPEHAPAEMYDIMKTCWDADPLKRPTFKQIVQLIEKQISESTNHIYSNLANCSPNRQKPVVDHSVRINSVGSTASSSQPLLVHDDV

[17] = tested on: Mast/stem cell growth factor receptor Kit (Homo sapiens), P10721 [V559D]; details: Compound concentration 1000.0 nM
Chain of Mast/stem cell growth factor receptor Kit (Homo sapiens), P10721 [V559D] (P10721 whole entry V559D, the tested form may be a part): as the sequence (P10721 whole entry L576P) above, with V559D, P576L counted along it

[18] = target: LIM domain kinase 1 (Homo sapiens) (UniProt P53667); details: Compound concentration 1000.0 nM
Chain of LIM domain kinase 1 (Homo sapiens) (P53667 whole entry, looked up, the tested form may be a part): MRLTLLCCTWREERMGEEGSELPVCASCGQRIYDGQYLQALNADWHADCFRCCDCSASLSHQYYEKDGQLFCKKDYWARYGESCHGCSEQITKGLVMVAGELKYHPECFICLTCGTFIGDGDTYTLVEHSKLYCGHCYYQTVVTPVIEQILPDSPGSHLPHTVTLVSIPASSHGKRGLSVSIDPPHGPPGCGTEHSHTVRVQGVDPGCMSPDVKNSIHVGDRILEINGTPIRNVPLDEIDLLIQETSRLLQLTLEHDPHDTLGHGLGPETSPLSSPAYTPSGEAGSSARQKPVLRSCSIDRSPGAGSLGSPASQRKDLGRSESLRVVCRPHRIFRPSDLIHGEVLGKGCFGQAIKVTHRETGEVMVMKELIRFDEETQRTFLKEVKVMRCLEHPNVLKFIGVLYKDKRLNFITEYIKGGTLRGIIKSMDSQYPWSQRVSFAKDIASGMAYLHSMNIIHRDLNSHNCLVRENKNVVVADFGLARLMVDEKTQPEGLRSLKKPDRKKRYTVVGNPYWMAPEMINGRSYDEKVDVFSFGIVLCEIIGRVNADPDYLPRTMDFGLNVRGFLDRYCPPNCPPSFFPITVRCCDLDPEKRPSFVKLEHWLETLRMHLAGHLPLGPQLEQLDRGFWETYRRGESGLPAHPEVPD

[19] = target: Serine/threonine-protein kinase 10 (Homo sapiens) (UniProt O94804); details: Compound concentration 1000.0 nM
Chain of Serine/threonine-protein kinase 10 (Homo sapiens) (O94804 whole entry, looked up): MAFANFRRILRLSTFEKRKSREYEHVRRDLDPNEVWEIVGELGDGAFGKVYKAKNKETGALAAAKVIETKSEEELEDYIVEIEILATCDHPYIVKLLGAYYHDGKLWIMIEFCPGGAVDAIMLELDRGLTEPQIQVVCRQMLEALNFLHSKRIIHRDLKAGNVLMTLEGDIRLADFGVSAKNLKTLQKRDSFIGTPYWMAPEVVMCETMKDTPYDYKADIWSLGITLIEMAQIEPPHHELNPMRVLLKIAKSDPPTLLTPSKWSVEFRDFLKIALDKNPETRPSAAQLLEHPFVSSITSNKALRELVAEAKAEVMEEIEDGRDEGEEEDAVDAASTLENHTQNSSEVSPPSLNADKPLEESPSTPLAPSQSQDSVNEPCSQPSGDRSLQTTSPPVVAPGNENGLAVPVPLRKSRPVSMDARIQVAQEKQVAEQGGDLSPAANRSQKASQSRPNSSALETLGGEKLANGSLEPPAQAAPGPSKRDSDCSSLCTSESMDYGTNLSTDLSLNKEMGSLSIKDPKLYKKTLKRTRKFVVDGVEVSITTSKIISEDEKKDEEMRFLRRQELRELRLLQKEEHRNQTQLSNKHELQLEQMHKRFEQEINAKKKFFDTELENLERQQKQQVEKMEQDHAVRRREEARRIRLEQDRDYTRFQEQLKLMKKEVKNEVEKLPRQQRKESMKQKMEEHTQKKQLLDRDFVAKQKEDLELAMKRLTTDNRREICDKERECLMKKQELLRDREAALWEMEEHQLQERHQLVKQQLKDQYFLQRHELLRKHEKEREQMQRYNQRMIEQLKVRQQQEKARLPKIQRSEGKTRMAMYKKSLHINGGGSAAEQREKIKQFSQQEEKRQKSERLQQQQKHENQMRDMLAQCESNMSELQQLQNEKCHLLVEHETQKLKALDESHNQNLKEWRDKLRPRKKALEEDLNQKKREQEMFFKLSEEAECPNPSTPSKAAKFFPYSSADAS

[20] = tested on: Leucine-rich repeat serine/threonine-protein kinase 2 (Homo sapiens), Q5S007 [G2019S]; details: Compound concentration 1000.0 nM
[21] = target: Serine/threonine-protein kinase MAK (Homo sapiens) (UniProt P20794); details: Compound concentration 1000.0 nM
Chain of Serine/threonine-protein kinase MAK (Homo sapiens) (P20794 whole entry): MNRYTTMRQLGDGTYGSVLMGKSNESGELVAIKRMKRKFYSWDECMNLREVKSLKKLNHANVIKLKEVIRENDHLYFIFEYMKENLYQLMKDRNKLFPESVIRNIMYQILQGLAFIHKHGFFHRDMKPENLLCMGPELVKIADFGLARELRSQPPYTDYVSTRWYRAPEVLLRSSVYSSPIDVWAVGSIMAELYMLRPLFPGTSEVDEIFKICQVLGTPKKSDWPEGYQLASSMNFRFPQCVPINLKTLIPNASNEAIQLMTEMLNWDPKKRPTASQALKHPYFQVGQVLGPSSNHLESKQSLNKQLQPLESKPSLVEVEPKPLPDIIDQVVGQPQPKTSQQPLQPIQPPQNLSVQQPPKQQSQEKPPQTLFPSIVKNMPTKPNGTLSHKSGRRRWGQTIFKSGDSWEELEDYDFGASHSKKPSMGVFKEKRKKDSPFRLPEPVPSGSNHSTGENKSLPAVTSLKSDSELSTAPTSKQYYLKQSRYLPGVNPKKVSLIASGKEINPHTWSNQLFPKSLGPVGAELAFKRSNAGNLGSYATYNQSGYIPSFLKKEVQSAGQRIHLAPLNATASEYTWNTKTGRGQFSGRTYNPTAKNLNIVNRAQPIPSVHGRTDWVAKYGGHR

[22] = target: Mitogen-activated protein kinase kinase kinase kinase 2 (Homo sapiens) (UniProt Q12851); details: Compound concentration 1000.0 nM
[23] = target: Mitogen-activated protein kinase kinase kinase 9 (Homo sapiens) (UniProt P80192); details: Compound concentration 1000.0 nM
[24] = target: Muscle, skeletal receptor tyrosine-protein kinase (Homo sapiens) (UniProt O15146); details: Compound concentration 1000.0 nM
[25] = target: Serine/threonine-protein kinase Nek1 (Homo sapiens) (UniProt Q96PY6); details: Compound concentration 1000.0 nM
[26] = tested on: Phosphatidylinositol 4,5-bisphosphate 3-kinase catalytic subunit alpha isoform (Homo sapiens), P42336 [E545A]; details: Compound concentration 1000.0 nM
[27] = tested on: Phosphatidylinositol 4,5-bisphosphate 3-kinase catalytic subunit alpha isoform (Homo sapiens), P42336 [M1043I]; details: Compound concentration 1000.0 nM
[28] = target: cAMP-dependent protein kinase catalytic subunit beta (Homo sapiens) (UniProt P22694); details: Compound concentration 1000.0 nM
[29] = target: Protein kinase C delta type (Homo sapiens) (UniProt Q05655); details: Compound concentration 1000.0 nM
[30] = target: Serine/threonine-protein kinase SIK3 (Homo sapiens) (UniProt Q9Y2K2); details: Compound concentration 1000.0 nM
[31] = target: Rho-associated protein kinase 1 (Homo sapiens) (UniProt Q13464); details: Compound concentration 1000.0 nM
[32] = target: Ribosomal protein S6 kinase alpha-2 (Homo sapiens) (UniProt Q15349); details: Compound concentration 1000.0 nM
[33] = target: SRSF protein kinase 1 (Homo sapiens) (UniProt Q96SB4); details: Compound concentration 1000.0 nM
[34] = target: Serine/threonine-protein kinase 16 (Homo sapiens) (UniProt O75716); details: Compound concentration 1000.0 nM
[35] = target: Activated CDC42 kinase 1 (Homo sapiens) (UniProt Q07912); details: Compound concentration 1000.0 nM
[36] = target: Serine/threonine-protein kinase ULK3 (Homo sapiens) (UniProt Q6PHR2); details: Compound concentration 1000.0 nM
[37] = target: Vascular endothelial growth factor receptor 2 (Homo sapiens) (UniProt P35968); details: Compound concentration 1000.0 nM
[38] = target: Serine/threonine-protein kinase 32C (Homo sapiens) (UniProt Q86UX6); details: Compound concentration 1000.0 nM
Chain of Serine/threonine-protein kinase 32C (Homo sapiens) (Q86UX6 whole entry): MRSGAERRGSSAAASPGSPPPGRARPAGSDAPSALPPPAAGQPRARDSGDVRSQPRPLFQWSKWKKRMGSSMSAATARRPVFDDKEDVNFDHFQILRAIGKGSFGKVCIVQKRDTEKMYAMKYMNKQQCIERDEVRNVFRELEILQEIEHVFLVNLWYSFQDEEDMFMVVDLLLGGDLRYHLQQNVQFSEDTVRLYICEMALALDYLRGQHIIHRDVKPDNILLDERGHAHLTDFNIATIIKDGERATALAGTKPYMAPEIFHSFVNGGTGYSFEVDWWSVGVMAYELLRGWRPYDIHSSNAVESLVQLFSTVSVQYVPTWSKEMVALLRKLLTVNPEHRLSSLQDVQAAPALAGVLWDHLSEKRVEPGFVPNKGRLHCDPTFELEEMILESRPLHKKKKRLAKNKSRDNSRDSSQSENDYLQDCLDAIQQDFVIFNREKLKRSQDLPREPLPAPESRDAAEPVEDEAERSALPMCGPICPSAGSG

[39] = target: Mitogen-activated protein kinase kinase kinase 20 (Homo sapiens) (UniProt Q9NYL2); details: Compound concentration 1000.0 nM
[40] = target: 5-hydroxytryptamine receptor 1E (Homo sapiens) (UniProt P28566); details: Compound concentration 10.0 uM
[41] = target: D(1A) dopamine receptor (Homo sapiens) (UniProt P21728); details: Compound concentration 10.0 uM
[42] = target: D(2) dopamine receptor (Homo sapiens) (UniProt P14416); details: Compound concentration 10.0 uM
[43] = target: Histamine H2 receptor (Homo sapiens) (UniProt P25021); details: Compound concentration 10.0 uM
Chain of Histamine H2 receptor (Homo sapiens) (P25021 whole entry): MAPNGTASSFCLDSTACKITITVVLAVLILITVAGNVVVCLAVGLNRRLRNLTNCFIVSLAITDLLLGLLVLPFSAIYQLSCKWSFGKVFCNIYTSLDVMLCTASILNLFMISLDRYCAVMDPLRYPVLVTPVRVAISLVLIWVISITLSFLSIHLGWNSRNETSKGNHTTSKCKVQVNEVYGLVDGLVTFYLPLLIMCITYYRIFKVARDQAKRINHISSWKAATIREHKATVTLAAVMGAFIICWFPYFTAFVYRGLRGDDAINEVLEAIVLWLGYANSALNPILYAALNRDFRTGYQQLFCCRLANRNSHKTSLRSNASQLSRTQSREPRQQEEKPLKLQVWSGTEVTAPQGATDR

[44] = target: GABA-A receptor; anion channel (Rattus norvegicus) (UniProt O09028+P15431+P18506+P18508+P19969+P20236+P23574+P23576+P28471+P28473+P30191+P62813+P63079+P63138+Q91ZM7+Q9ES14); details: Compound concentration 10.0 uM

Chain of Cyclin-dependent kinase 5 (Homo sapiens) (Q00535 whole entry, looked up): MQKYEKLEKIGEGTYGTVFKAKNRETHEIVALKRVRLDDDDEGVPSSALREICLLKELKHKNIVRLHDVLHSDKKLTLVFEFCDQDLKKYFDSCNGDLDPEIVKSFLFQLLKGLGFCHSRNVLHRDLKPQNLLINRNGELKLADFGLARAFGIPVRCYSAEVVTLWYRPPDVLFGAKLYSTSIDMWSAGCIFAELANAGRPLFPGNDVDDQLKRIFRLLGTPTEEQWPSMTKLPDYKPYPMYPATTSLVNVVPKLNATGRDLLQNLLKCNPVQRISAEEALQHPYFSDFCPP

For `O=c1nc(-c2ccccn2)sc2ccccc12` [BTZO-1], the residual activity [1] was 100%, the residual activity [2] was 87% and the residual activity [3] was 88%. It also gave a residual activity [4] of 85%, a residual activity [5] of 90% and a residual activity [6] of 100%. For the same compound, the residual activity [7] was 100%, the residual activity [8] was 84% and the residual activity [9] was 73%. It also gave a residual activity [10] of 100%, a residual activity [11] of 100% and a residual activity [12] of 92%. It also gave a residual activity [13] of 85%, a residual activity [14] of 100% and a residual activity [15] of 100%. For the same compound, the residual activity [16] was 86%, the residual activity [17] was 95% and the residual activity [18] was 84%. For the same compound, the residual activity [19] was 99%, the residual activity [20] was 92% and the residual activity [21] was 89%. The residual activity [22] was 100%, the residual activity [23] was 85% and the residual activity [24] was 100%. It also gave a residual activity [25] of 100%, a residual activity [26] of 92% and a residual activity [27] of 100%. It also gave a residual activity [28] of 92%, a residual activity [29] of 100% and a residual activity [30] of 85%. It also gave a residual activity [31] of 100%, a residual activity [32] of 100% and a residual activity [33] of 83%. The residual activity [34] was 83%, the residual activity [35] was 100% and the residual activity [36] was 100%. The residual activity [37] was 100%, the residual activity [38] was 100% and the residual activity [39] was 87%. The inhibition [40] was -1.13%, the inhibition [41] was 3.24% and the inhibition [42] was 22.9%. The inhibition [43] was 24.4% and the inhibition [44] was 55.9%.

For `O=C1NC(c2ccccn2)Sc2ccccc21` (stereo not drawn) [BTZO-4], the residual activity [1] was 77%, the residual activity [2] was 85% and the residual activity [3] was 98%. The residual activity [4] was 86%, the residual activity [5] was 97% and the residual activity [6] was 100%. The residual activity [7] was 100%, the residual activity [8] was 92% and the residual activity [9] was 72%. It also gave a residual activity [10] of 100%, a residual activity [11] of 81% and a residual activity [12] of 86%. The residual activity [13] was 70%, the residual activity [14] was 100% and the residual activity [15] was 100%. For the same compound, the residual activity [16] was 89%, the residual activity [17] was 100% and the residual activity [18] was 78%. For the same compound, the residual activity [19] was 100%, the residual activity [20] was 81% and the residual activity [21] was 92%. The residual activity [22] was 83%, the residual activity [23] was 88% and the residual activity [24] was 90%. It also gave a residual activity [25] of 100%, a residual activity [26] of 97% and a residual activity [27] of 74%. The residual activity [28] was 97%, the residual activity [29] was 71% and the residual activity [30] was 70%. It also gave a residual activity [31] of 82%, a residual activity [32] of 97% and a residual activity [33] of 73%. For the same compound, the residual activity [34] was 83%, the residual activity [35] was 100% and the residual activity [36] was 100%. For the same compound, the residual activity [37] was 82%, the residual activity [38] was 88% and the residual activity [39] was 100%. For the same compound, the inhibition [40] was -0.383%, the inhibition [41] was 7.77% and the inhibition [42] was -3.91%. For the same compound, the inhibition [43] was 24.8% and the inhibition [44] was 6.34%.
